From US20240033269A1, “PPARAXANTHINE-BASED COMPOSITIONS FOR INHIBITING INFLAMMATION, IMPROVING JOINT HEALTH, AND ENHANCING IMMUNE FUNCTION” (PX ING, LLC, priority 2022, published 2024)

Columns and labels:
Format in all cases: in vivo, Swiss Albino mice
Th1 = Th1 cells by flow cytometry after 28 days oral treatment
Method: (§1) Sixteen 8-week-old male Swiss Albino mice were housed in an animal room at a constant temperature (22±3° C.) and humidity (30-70%) under a 12:12 h light-dark cycle with standard laboratory diet (Purina 5L79, Rat and Mouse 18% protein; PMI Nutrition International, Brentwood, MO, USA). Distilled water was provided ad libitum. All animal experiments were reviewed and approved by the Institutional Animal Ethical Committee (IAEC) of Radiant Research Services Pvt. Ltd. (Bangalore, India). All research was conducted in accordance with the guidelines of the committee for the purpose of control and supervision of experiments on animals.
(§2) After one week of acclimation, the animals were randomly divided by body weight into two groups (n=8 per group in each test) for oral treatment once a day, at approximately the same time each day (±1 h), for 28 consecutive days: (1) vehicle control; (2) paraxanthine. The dose administered to the mice was calculated using US Food and Drug Administration for human equivalence doses (HED), assuming a human weight of 60 kg. The following HED were used in this study: 100 mg paraxanthine, (ENFINITY™, Ingenious Ingredients, L.P Lewisville, TX, USA; mouse dose: 20.5 mg/kg bw/day). […]

iTreg = iTreg cells by flow cytometry after 28 days oral treatment
Method: as §1, §2

Th2 = Th2 cells by flow cytometry after 28 days oral treatment
Method: as §1, §2

C-reactive protein (CRP) = assay: Blood C-reactive protein after 28 days oral treatment with treadmill exercise training
Method: as §1
(§3) After one week of acclimation, the animals were randomly divided by body weight into two groups (n=8 per group in each test) for oral treatment once a day, at approximately the same time each day (±1 h), for 28 consecutive days: (1) vehicle control; (2) paraxanthine. The dose administered to the mice was calculated using US Food and Drug Administration for human equivalence doses (HED), assuming a human weight of 60 kg. The following HED were used in this study: 100 mg paraxanthine, (ENFINITY™, Ingenious Ingredients, L.P Lewisville, TX, USA; mouse dose: 20.5 mg/kg bw/day).
(§4) During the treatment period, exercise training was completed using a motorized treadmill (Exer 3/6, Columbus Instruments international, Columbus, OH, USA) at a moderate intensity of 20 cm/sec as maximal running speed, an incline of 10 degrees and a shock intensity of 0.2 mA, for 10 min. The speed of the treadmill was manually adjusted by increasing the belt speed by 5 cm/sec every 2 min throughout the total duration of 10 min. All animals were adapted to this procedure daily 60 min after dosing for 5 days in a week during the treatment period.
(§5) On 29th day, blood was collected from retro-orbital route for biochemical analysis. IL-2, IL-6, IL-10, assay was done by using standard ELISA assay kit method. The Tfh,/iTreg assay was done by using flow cytometry method.

IL-2 = assay: Serum IL-2 by ELISA after 28 days oral treatment with treadmill exercise training
Method: as §1, §3, §4, §5

Tfh = Tfh cells by flow cytometry after 28 days oral treatment
Method: as §1, §2

IL-10 = assay: Serum IL-10 by ELISA after 28 days oral treatment with treadmill exercise training
Method: as §1, §3, §4, §5

Th17 = Th17 cells by flow cytometry after 28 days oral treatment
Method: as §1, §2

IL-6 = assay: Serum IL-6 by ELISA after 28 days oral treatment with treadmill exercise training
Method: as §1, §3, §4, §5

[1] = mice, 28 days oral, versus control

Cn1c(=O)[nH]c2ncn(C)c2c1=O [Paraxanthine, 1,7-dimethyl-3H-purine-2,6-dione] was tested, and the “Delta Th1” value (Th1; change versus control, day 29) was −29.8%, the “Th1 (%)” value (Th1; mice, oral 20.5 mg/kg bw/day 28 days, blood on day 29, control 93.54 ± 2.82) was 65.68 ± 3.98 % and the “Delta iTreg” value (iTreg; change versus control, day 29) was −56.5%. For the same compound, the “iTreg (%)” value (iTreg; mice, oral 20.5 mg/kg bw/day 28 days, blood on day 29, control 54.47 ± 4.2) was 23.68 ± 2.62 %, the “Delta Th2” value (Th2; change versus control, day 29) was “+368.0%” and the “Th2 (%)” value (Th2; mice, oral 20.5 mg/kg bw/day 28 days, blood on day 29, control 11.46 ± 3.16) was 53.63 ± 3.85 %. For the same compound, the “Delta CRP” value (C-reactive protein (CRP); change versus control, day 29) was −18.3%, the “effect on C-reactive protein (CRP) (in words)” value (C-reactive protein (CRP); [1]) was “reduced” and the “CRP (mg/L) Inflammation” value (C-reactive protein (CRP); mice, oral once daily 28 days (paraxanthine 20.5 mg/kg bw/day), blood on day 29, control 0.77 ± 0.09) was 0.64 ± 0.07 mg/L. For the same compound, the “Delta IL-2” value (IL-2; change versus control, day 29) was “+23.1%”, the “effect on IL-2 (in words)” value (IL-2; [1]) was “increased” and the “IL-2 (ng/L) Adaptive Immunity” value (IL-2; mice, oral once daily 28 days (paraxanthine 20.5 mg/kg bw/day), blood on day 29, control 37.29 ± 1.88) was 45.91 ± 2.68 ng/L. The “Delta Tfh” value (Tfh; change versus control, day 29) was “+602.8%”, the “Tfh (%)” value (Tfh; mice, oral 20.5 mg/kg bw/day 28 days, blood on day 29, control 7.82 ± 1.04) was 54.96 ± 4.44 % and the “Delta IL-10” value (IL-10; change versus control, day 29) was “+8.3%”. The “effect on anti-inflammatory cytokine IL-10 (in words)” value (IL-10; [1]) was “increased”, the “IL-10 (pg/ml) Anti-inflammatory” value (IL-10; mice, oral once daily 28 days (paraxanthine 20.5 mg/kg bw/day), blood on day 29, control 527.86 ± 9.22) was 571.71 ± 16.43 pg/mL and the “Delta Th17” value (Th17; change versus control, day 29) was “+758.4%”. For the same compound, the “Th17 (%)” value (Th17; mice, oral 20.5 mg/kg bw/day 28 days, blood on day 29, control 3.65 ± 0.85) was 31.33 ± 1.31 %, the “Delta IL-6” value (IL-6; change versus control, day 29) was −7.7% and the “effect on pro-inflammatory cytokine IL-6 (in words)” value (IL-6; [1]) was “reduced”. The “IL-6 (pg/ml) Pro-inflammatory” value (IL-6; mice, oral once daily 28 days (paraxanthine 20.5 mg/kg bw/day), blood on day 29, control 369.04 ± 13) was 340.6 ± 13.6 pg/mL.
